Experimental data as given in patent US20210198277A1, “AMINE-SUBSTITUTED ARYL OR HETEROARYL COMPOUNDS” (Epizyme, Inc., priority 2016, published 2021).

Target: T1, EHMT1 (Homo sapiens, UniProt Q9H9B1)
T1 sequence (Q9H9B1 1-1298): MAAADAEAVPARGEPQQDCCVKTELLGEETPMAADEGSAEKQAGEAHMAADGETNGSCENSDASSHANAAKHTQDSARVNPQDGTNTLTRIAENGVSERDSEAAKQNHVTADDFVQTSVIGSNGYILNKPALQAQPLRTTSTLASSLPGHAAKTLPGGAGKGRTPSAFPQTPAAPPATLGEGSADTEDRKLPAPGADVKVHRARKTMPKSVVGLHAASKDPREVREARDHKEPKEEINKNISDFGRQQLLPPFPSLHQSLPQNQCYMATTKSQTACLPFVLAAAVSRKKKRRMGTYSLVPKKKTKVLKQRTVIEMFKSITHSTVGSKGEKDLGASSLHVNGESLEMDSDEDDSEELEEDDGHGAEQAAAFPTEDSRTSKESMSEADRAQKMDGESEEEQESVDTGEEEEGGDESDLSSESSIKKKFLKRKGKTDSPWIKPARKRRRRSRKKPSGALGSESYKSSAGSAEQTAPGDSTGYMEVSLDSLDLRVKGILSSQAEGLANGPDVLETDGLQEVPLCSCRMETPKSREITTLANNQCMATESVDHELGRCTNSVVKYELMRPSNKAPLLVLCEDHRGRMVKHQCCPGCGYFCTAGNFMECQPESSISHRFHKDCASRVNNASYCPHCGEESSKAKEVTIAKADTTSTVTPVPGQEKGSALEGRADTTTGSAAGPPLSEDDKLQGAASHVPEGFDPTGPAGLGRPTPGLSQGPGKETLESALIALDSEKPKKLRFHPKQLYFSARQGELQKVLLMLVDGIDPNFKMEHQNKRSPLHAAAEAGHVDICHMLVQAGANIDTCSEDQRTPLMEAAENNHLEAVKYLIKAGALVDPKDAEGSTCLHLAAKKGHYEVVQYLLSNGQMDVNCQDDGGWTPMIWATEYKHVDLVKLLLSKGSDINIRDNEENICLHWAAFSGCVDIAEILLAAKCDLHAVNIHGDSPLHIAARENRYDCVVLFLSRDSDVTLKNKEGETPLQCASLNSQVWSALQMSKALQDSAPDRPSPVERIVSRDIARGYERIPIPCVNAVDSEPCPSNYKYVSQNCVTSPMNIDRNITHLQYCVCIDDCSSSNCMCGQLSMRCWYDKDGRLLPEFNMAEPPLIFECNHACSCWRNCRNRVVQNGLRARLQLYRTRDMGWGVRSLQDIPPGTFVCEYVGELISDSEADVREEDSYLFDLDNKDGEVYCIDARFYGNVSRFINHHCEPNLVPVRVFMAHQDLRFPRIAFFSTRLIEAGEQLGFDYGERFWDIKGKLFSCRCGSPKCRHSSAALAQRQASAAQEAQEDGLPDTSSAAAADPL
Assay: EHMT1 enzyme assay on peptide substrate (EHMT1 PEP)
Format: biochemical
Details: read-out: EHMT1 PEP (IC50 μM)

| SMILES | IC50 |
| --- | --- |
| CNc1cc(C)nc(Nc2ccc(OC)c(OC[C@@H]3CCN(C4CC4)C3)c2)n1 (single isomer, unassigned) [Compound 481] | < 0.1 µM |
| CNc1cc(C)nc(Nc2ccc(OC)c(OC[C@H]3CCN(C4CC4)C3)c2)n1 (single isomer, unassigned) [Compound 482] | 0.1 to 1 µM |
| CNc1ccnc(Nc2ccc(OC)c(OCCOC3CC3)c2)n1 [Compound 453, N^2-(3-(2-cyclopropoxyethoxy)-4-methoxyphenyl)-N^4-methylpyrimidine-2,4-diamine] | > 10 µM |
| CNc1cc(C)nc(Nc2ccc(OC)c(OC3CCN(C)CC3)c2)n1 [Compound 455] | > 10 µM |
| CNc1cc(C)nc(Nc2ccc(OC)c(OCC3CCN(C4CCCC4)C3)c2)n1 (stereo not shown) [Compound 456, N^2-(3-((1-cyclopentylpyrrolidin-3-yl)methoxy)-4-methoxyphenyl)-N^4,6-dimethylpyrimidine-2,4-diamine] | 1 to 10 µM |
| CNc1cc(C)nc(Nc2ccc(OC)c(OCC3CCN(C4CC4)C3)c2)n1 (stereo not shown) [Compound 457] | < 0.1 µM |
| CNc1cc(C2CCCC2)nc(Nc2ccc(OC)c(OCCCN3CCCC3)c2)n1 [Compound 458, 6-cyclopentyl-N^2-(4-methoxy-3-(3-(pyrrolidin-1-yl)propoxy)phenyl)-N^4-methylpyrimidine-2,4-diamine] | 0.1 to 1 µM |
| CNc1cc(C2CCOCC2)nc(Nc2ccc(OC)c(OCCCN3CCCC3)c2)n1 [Compound 459, N^2-(4-methoxy-3-(3-(pyrrolidin-1-yl)propoxy)phenyl)-N^4-methyl-6-(tetrahydro-2H-pyran-4-yl)pyrimidine-2,4-diamine] | 1 to 10 µM |
| COc1cnc(Nc2nc(C)cc3[nH]ncc23)cc1OCCCN1CCCC1 [Compound 460, N-(5-methoxy-4-(3-(pyrrolidin-1-yl)propoxy)pyridine-2-yl)-6-methyl-1H-pyrazolo[4,3-c]pyridine-4-amine] | < 0.1 µM |
| CNc1cc(C)nc(Nc2ccc(OC)c(OCC3CCN(CCO)C3)c2)n1 (stereo not shown) [Compound 461, 2-(3-((2-methoxy-5-((4-methyl-6-(methylamino)pyrimidin-2-yl)amino)phenoxy)methyl)pyrrolidin-1-yl)ethan-1-ol] | < 0.1 µM |
| COc1ccc(Nc2nc(C)cc(NCC3CCOCC3)n2)cc1OCC1CCN(C2CC2)C1 (stereo not shown) [Compound 462, N^2-(3-((1-cyclopropylpyrrolidin-3-yl)methoxy)-4-methoxyphenyl)-6-methyl-N^4-((tetrahydro-2H-pyran-4-yl)methyl)pyrimidine-2,4-diamine] | < 0.1 µM |
| CNc1cc(C)nc(Nc2ccc(OC)c(OCCCN(C)C3CC3)c2)n1 [Compound 463, N^2-(3-(3-(cyclopropyl(methyl)amino)propoxy)-4-methoxyphenyl)-N^4,6-dimethylpyrimidine-2,4-diamine] | < 0.1 µM |
| COc1cnc(Nc2cc(NCC3CCOCC3)cc(C)n2)cc1OCCCN1CCCC1 [Compound 464, N^2-(5-methoxy-4-(3-(pyrrolidin-1-yl)propoxy)pyridin-2-yl)-6-methyl-N^4-((tetrahydro-2H-pyran-4-yl)methyl)pyridine-2,4-diamine] | 0.1 to 1 µM |
| CNc1cc(C)nc(Nc2ccc(OC)c(OCCCN3CC(O)C3)c2)n1 [Compound 465, 1-(3-(2-methoxy-5-((4-methyl-6-(methylamino)pyrimidin-2-yl)amino)phenoxy)propyl)azetidin-3-ol] | < 0.1 µM |
| CNc1cc(C)nc(Nc2ccc(OC)c(OC3CCN(C4CC4)CC3)c2)n1 [Compound 466, N^2-(3-((1-cyclopropylpiperidin-4-yl)oxy)-4-methoxyphenyl)-N^4,6-dimethylpyrimidine-2,4-diamine] | > 10 µM |
| CNc1cc(C)nc(Nc2ccc(OC)c(OC[C@H]3C[C@@H](N(C)C)C3)c2)n1 [Compound 468] | 0.1 to 1 µM |
| CNc1cc(C)nc(Nc2ccc(OC)c(OC[C@H]3C[C@H](N(C)C)C3)c2)n1 [Compound 470] | 1 to 10 µM |
| CCn1nc(Nc2nccc3[nH]ccc23)cc1COCCN1CCCC1 [Compound 471] | 1 to 10 µM |
| CNc1cc(Nc2cc(OC[C@@H]3CCN(C)C3)c(OC)cn2)nc(C)n1 [Compound 473] | 0.1 to 1 µM |
| CNc1cc(C)nc(Nc2cc(OC[C@@H]3CCN(C)C3)c(OC)cn2)c1 [Compound 475] | < 0.1 µM |
| CNc1ccnc(Nc2ccc(OC)c(OC[C@@H]3CN(C)C[C@@H]3C)c2)n1 [Compound 477] | 0.1 to 1 µM |
| CNc1ccnc(Nc2ccc(OC)c(OCc3nnc(C4CC4)[nH]3)c2)n1 [Compound 478] | > 10 µM |
| CNc1ccnc(Nc2ccc(OC)c(OCc3ncn(C4CC4)n3)c2)n1 [Compound 480] | > 10 µM |
| CNc1cc(C(C)C)nc(Nc2ccc(OC)c(OCCCN3CCCC3)c2)n1 [Compound 483] | < 0.1 µM |
| COc1cnc(Nc2nc(C)cc3[nH]c(C)cc23)cc1OCCCN1CCCC1 [Compound 485] | < 0.1 µM |
| COc1ccc(Nc2nc(C)cc3[nH]ccc23)cc1OCCCN1CCCC1 [Compound 486] | > 10 µM |

| SMILES | IC50 |
| --- | --- |
| CNc1cc(C)nc(Nc2ccc(OC)c([C@H]3C[C@@H]3CN(C)C)c2)n1 [Compound 487] | 0.1 to 1 µM |
| CNc1cc(C)nc(Nc2ccc(OC)c([C@H]3C[C@H]3CN(C)C)c2)n1 [Compound 488] | < 0.1 µM |
| CNc1cc(C)nc(Nc2ccc(OC)c(OC(C#N)CCN3CCCC3)c2)n1 (stereo not shown) [Compound 489] | 0.1 to 1 µM |
| CNc1cc(C)nc(Nc2ccc(OC)c(OCCCN3CCC3)c2)n1 [Compound 490] | < 0.1 µM |
| CNc1cc(C)nc(Nc2ccc(OC)c(OC[C@@H]3CN(C)C[C@H]3O)c2)n1 [Compound 491] | < 0.1 µM |
| CNc1cc(C)nc(Nc2ccc(OC)c(OC[C@@H]3CN(C)C[C@@H]3O)c2)n1 [Compound 492] | < 0.1 µM |
| COc1cnc(Nc2nc(C)cc3[nH]ccc23)cc1OCC1CCN(C2CC2)C1 (stereo not shown) [Compound 494] | < 0.1 µM |
| COc1cnc(Nc2nc(C)cc3[nH]ccc23)cc1OC[C@H]1CCN(C2CC2)C1 [Compound 494a] | < 0.1 µM |
| COc1cnc(Nc2nc(C)cc3[nH]ccc23)cc1OC[C@@H]1CCN(C2CC2)C1 [Compound 495] | < 0.1 µM |
| CNc1cc(C)nc(Nc2cc(Cl)c(OC)c(OCCCN3CCCC3)c2)n1 [Compound 496] | 0.1 to 1 µM |
| CCc1ccc(Nc2nc(C)cc(NC)n2)cc1OCCCN1CCCC1 [Compound 497] | 0.1 to 1 µM |
| CNc1cc(C)nc(Nc2ccc(OC)c(OCCCN3CCC4(CC4)C3)c2)n1 [Compound 498, N^2-(3-(3-(5-azaspiro[2.4]heptan-5-yl)propoxy)-4-methoxyphenyl)-N^4,6-dimethylpyrimidine-2,4-diamine] | 0.1 to 1 µM |
| CNc1cc(C)nc(Nc2ccc(OC)c(OCCCCN(C)C)c2)n1 [Compound 502] | 0.1 to 1 µM |
| CNc1cc(C)nc(Nc2ccc(OC)c(OCCC3CCN(C)C3)c2)n1 (stereo not shown) [Compound 503] | 1 to 10 µM |
| CNc1cc(C)nc(Nc2ccc(OC)c(OCCCN3CCCC3C)c2)n1 (stereo not shown) [Compound 504, N^2-(4-methoxy-3-(3-(2-methylpyrrolidin-1-yl)propoxy)phenyl)-N^4,6-dimethylpyrimidine-2,4-diamine] | 0.1 to 1 µM |
| CNc1cc(C)nc(Nc2ccc(OC)c(OCCCN3CC4CC4C3)c2)n1 (stereo not shown) [Compound 506] | < 0.1 µM |
| COc1cnc(Nc2nccc3[nH]ccc23)cc1OCCCN1CC2CC2C1 (stereo not shown) [Compound 507] | < 0.1 µM |
| CNc1cc(C)nc(Nc2ccc(OC)c(OCCC3CN(C)C3)c2)n1 [Compound 508] | 1 to 10 µM |
| CNc1cc(Nc2cc(OCCCN3CC4CC4C3)c(OC)cn2)nc(C)c1F (stereo not shown) [Compound 509] | < 0.1 µM |
| CNc1cc(C)nc(Nc2ccc(OC)c(OCC3CN(C4CC4)C3)c2)n1 [Compound 510] | < 0.1 µM |
| CNc1cc(C)nc(Nc2cnc(OC)c(OC[C@@H]3CCN(C4CC4)C3)c2)n1 [Compound 512] | < 0.1 µM |
| CNc1cc(C)nc(Nc2cnc(OC)c(OCCCN3CC4CC4C3)c2)n1 (stereo not shown) [Compound 514] | < 0.1 µM |
| CCc1ncc(Nc2nc(C)cc(NC)n2)cc1OCCCN1CCCC1 [Compound 515] | 1 to 10 µM |
| CNc1cc(C)nc(Nc2cnc(C3CC3)c(OCCCN3CCCC3)c2)n1 [Compound 516] | 1 to 10 µM |
| CNc1cc(C)nc(Nc2ccc(OC)c(OCC3CCCN(C4CC4)C3)c2)n1 (stereo not shown) [Compound 517a] | 0.1 to 1 µM |
| CNc1cc(C)nc(Nc2ccc(OC)c(OC[C@H]3CCCN(C4CC4)C3)c2)n1 [Compound 517b] | 0.1 to 1 µM |
